Earlier results on 2 compounds are cited in US9561187B1, “Sustained release metoprolol formulations” (CMAX Technologies, Inc., priority 2014, dated 2017).

The structures appear in SMILES notation. Counter-ions that a name gives are not always drawn. Like-named read-outs stand apart in the source and are kept apart here.

For data set [1] the following is noted: immediate-release tartrate vs extended-release succinate.

In the case of `COCCc1ccc(OCC(O)CNC(C)C)cc1` (racemic) [Metoprolol tartrate, (±)-1-(Isopropylamino)-3-[p-(2-methoxyethyl)phenoxy]-2-propanol L-(+)-tartrate (2:1) salt], the Solubility result is, setting by setting: (in acetone) “slightly soluble”; (in ether) “insoluble”; (in methylene chloride, in chloroform, and in alcohol) “freely soluble”; (in water) “very soluble”. Moreover, in data set [1], the “More bioavailable than metoprolol succinate (more drug is absorbed)” value is listed as “at least 30%”.

`COCCc1ccc(OCC(O)CNC(C)C)cc1` (racemic) [Metoprolol succinate, (±)1(isopropylamino)-3-[p-(2-methoxyethyl)phenoxy]-2-propanol succinate (2:1) (salt)]: the Solubility entry by setting is: (in dichloromethane and 2-propanol) “slightly soluble”; (in ethanol) “sparingly soluble”; (in ethyl-acetate, acetone, diethylether and heptane) “practically insoluble”; (in methanol) “soluble”; (in water) “freely soluble”.
